Entries after “also recorded” stand apart in the source; their conditions may differ.
Tests used:
[1] = tested on: Human red blood cells (RBCs); assay: Hemolysis assay; type: cell-based; settings: endosomal pH 5.5, 37 C, one hour
Protocol: Human red blood cells (RBCs, Innovative Research) were washed twice with 1×PBS and diluted in either 1×PBS or citrate buffer saline at pH 5.5 (CBS, 20 mM citrate buffer, 130 mM NaCl) to a 4% v/v RBC solution. In a v-bottom, 96-well plate, 100 μL of blank LNPs formulated at an equivalent concentration of 23.75 ng siRNA/μL (no siRNA was used) were added to 100 μL of the 4% v/v RBC solution in either PBS or CBS and heated to 37° C. for one hour. After cooling, the plate was centrifuged at 4° C. at 1000×g for 5 minutes. 100 μL of the supernatant was transferred into a clear 96-well assay plate and the UV absorption was read 540 nm. Positive and negative control experiments were carried out with 0.1% Triton-X (100%) and buffer alone, respectively.

[2] = tested on: HeLa cells; assay: Confocal microscopy of LNPs with FRET-labeled siRNA probes; type: cell-based; settings: 50 ng FRET-labeled probes, one hour
Protocol: HeLa cells were seeded at 1.5×10^4 cells per well in black (clear bottom) 96-well plates (Greiner Bio-one) and incubated for 24 hours prior to transfection. The cells were then transfected with the inventive LNPs containing 50 ng of FRET-labeled probes for one hour. The cells were washed, fixed, and counterstained in PBS containing Hoechst (2 μg/mL) for nuclei identification. The cells were then imaged using an automated spinning disk confocal microscope (OPERA, Perkin Elmer) with a 40× objective. The exposure rates were maintained constant for individual fluorophores across the 96-well plate. The images were acquired from the Acapella software with a 20 μm scale bar.

[3] = tested on: HeLa cells stably modified to constitutively express both firefly and Renilla luciferases; assay: In vitro transfection: firefly luciferase silencing by LNP-siRNA (Dual-Glo); type: cell-based; settings: LNPs with anti-firefly luciferase siRNA, serum containing media, 24 hours
Protocol: Lipid nanoparticles were formulated by mixing an equal volume of an ethanolic solution of a lipid of the invention (e.g., a compound of the invention) and an […] at pH 3 to give a 5:1 synthesized lipid:siRNA ratio. The resulting solution was then diluted in an equal volume of 1× phosphate-buffered saline (PBS). The ethanolic lipid solution contained a mixture of synthesized lipids, cholesterol (Sigma Aldrich), 1,2-distearoyl-sn-glycero-3-phosphocholine (DSPC, Avanti Polar Lipids, Alabaster, Ala.) and mPEG2000-DMG (MW 2660, Alnylam Pharmaceuticals, Cambridge, Mass.) at a molar ratio of 50:38.5:10:1.5 in 200-proof ethanol. For all studies, the ethanolic lipid and siRNA solutions were hand mixed via pipette. The LNPs for in vivo use were also dialyzed for 75 minutes against 1×PBS in 3500 MW cut-off (MWCO) cassettes (Pierce/Thermo Scientific, Rockford, Ill.) prior to use.
In vitro transfection was performed on HeLa cells stably modified to constitutively express both firefly and Renilla luciferases. Cells were maintained at 37° C. in a 5% CO2 atmosphere in high glucose Dulbelco modified Eagles medium without phenol red (Invitrogen, Carlsbad, Calif.) supplemented with 10% fetal bovine serum (FBS, Invitrogen). Prior to transfection, 15,000 cells were seeded in white 96-well plates and allowed to attach overnight. On the day of transfection, the media was replaced with 90 μL of fresh media. LNPs were formulated at a concentration of 10 ng/μL and diluted with 1×PBS to obtain the desired concentration. For example, to achieve a transfection of 25 ng of siRNA per well, the 10 ng/μL stock was diluted 1:4 to give 2.5 ng/μL, and 10 μL of this solution was added to the cells in 90 μL of media. Lipofectamine (RNAiMAX) was used according to the manufacturer's instructions as a positive control. Relative firefly luciferase silencing was assessed approximately 24 hours after LNP addition using a Dual-Glo luciferase assay kit (Promega, Madison, Wis.). The firefly luciferase values were normalized to the Renilla luciferase values in order to correct for potential toxicity and/or off-target effects. All experiments were carried out in sextuplicates.

[4] = tested on: HeLa cells; assay: Cellular uptake of LNPs with Alexa Fluor 647 siRNA (flow cytometry); type: cell-based; settings: two hours incubation, serum containing media
Protocol: (§1) Extracellular/Intracellular Fluorescence Resonance Energy Transfer (FRET) Assays and Cellular Uptake
(§2) LNPs containing an equimolar mixture of siRNAs labeled with Alexa Fluor® 594 and Alexa Fluor® 647 were diluted to 10 ng siRNA/μL with 1×PBS and added to a black 96-well plate pre-plated with 20,000 HeLa cells at 37° C. Control wells contained LNPs with 1% Triton-X. To measure the FRET, the samples were excited at 540 nm, and the fluorescence intensity was read at 690 and 620 nm using a Tecan Safire 2 Microplate reader at 37° C. FRET was determined as the ratio of the fluorescence intensities at 690/620 nm. FRET signals for all LNPs were normalized to that of the control wells. For extracellular FRET experiments, an identical experiment was carried out without cells, and the FRET data obtained were similar. […] The trypsined cells were then neutralized with 120 μL of quenching media (25% cell culture media in 1×PBS) and transferred to a 96-well v-bottom plate and analyzed via flow cytometry. For each sample, 10,000 events were monitored and evaluated by a BD LSR II HTS flow cytometer (BD Bioscience). […] For cell uptake studies, LNPs formulated with just Alexa Fluor® 647 were analyzed using settings for the Alexa Fluor® 647 channel: exciation via a 633 nm (red, HeNe) laser and emission via a 660/20 nm filter.

[5] = tested on: HeLa cells; assay: Intracellular FRET with FRET-labeled siRNA probes (flow cytometry); type: cell-based; settings: early time point after transfection
Protocol: as §1, §2

[6] = 6-p-toluidinyl-naphthalene-2-sulfonate (TNS) assay, apparent pKa of the LNPs; type: physicochemical; settings: TNS fluorescence titration pH 2.5 to 8.5, fully formulated LNP
Protocol: 6-p-toluidinyl-naphthalene-2-sulfonate (TNS) Assay
A series of buffers with pH ranging between 2.5 and 8.5 were prepared by adjusting the pH of a solution containing 10 mM citrate, 10 mM phosphate, 10 mM borate, and 150 mM NaCl with 1N HCl. 90 μL of each buffer solution was added to a 96-well plate. A 300 μM stock solution of TNS was prepared in DMSO and 2 μL of this solution was added to the buffer solutions in the 96 well plate. After formulation, 10 μL of an LNP solution (prepared without siRNA) was added to the above mixture such that the synthesized lipid concentration (not co-lipids) in the final mixture was […]. The fluorescence of the resulting solution was obtained on a Tecan Safire 2 Microplate reader using an excitation wavelength of 325 nm and an emission wavelength of 435 nm. The fluorescence signal was plotted against pH and fitted using a three-parameter logistic equation (GraphPad Prism v.5.0a, GraphPad Software, San Diego Calif. USA). The pH value at which half of the maximum fluorescence is reached was reported as the apparent pKa of the LNPs.

[7] = Dynamic light scattering, particle size; type: physicochemical
Protocol: After formulation, the LNPs-siRNA were diluted with 1×PBS to a final siRNA concentration of 2 μg/mL. The average particle size was measured via dynamic light scattering on a Malvern Zetasizer Nano ZS (Malvern Instruments, Worcestershire, UK). All experiments were carried out in triplicates.

Compound | in vitro gene silencing (firefly luciferase, Luc/Ren) [3] | LNP pKa [6] | also measured
CCCCCCCCCCSCC(COC(=O)CCN(CCCN(CC)CC)CCC(=O)OCC(CSCCCCCCCCCC)SCCCCCCCCCC)SCCCCCCCCCC (centres unmarked) [I-2] |  |  | LNP-mediated hemolysis of RBCs at pH 5.5 [1]: hemolytic; intracellular location of LNPs [2]: located near the cell membrane and inside endocytic vesicles; also recorded: reside in the endocytic vesicles
CCCCCCCCCCSCC(COC(=O)CCN(CCC(=O)OCC(CSCCCCCCCCCC)SCCCCCCCCCC)CCN(C)C)SCCCCCCCCCC (centres unmarked) [I-3] |  |  | LNP-mediated hemolysis of RBCs at pH 5.5 [1]: hemolytic; intracellular location of LNPs [2]: located near the cell membrane and inside endocytic vesicles; also recorded: reside in the endocytic vesicles
CCCCCCCCCCSCC(COC(=O)CCN(CCC(=O)OCC(CSCCCCCCCCCC)SCCCCCCCCCC)CCN(C(C)C)C(C)C)SCCCCCCCCCC (centres unmarked) [I-4] | poor gene silencing; also recorded: limited gene silencing performance | low pKa values | in vitro gene silencing (firefly luciferase, Luc/Ren) ([3]; listed as 4): low gene silencing; cellular uptake [4]: relatively high uptake; intracellular FRET signal (uptake of intact LNPs) [5]: did not give an intracellular FRET signal
CCCCCCCCCCSCC(COC(=O)CCN(CCCN(CCCC)CCCC)CCC(=O)OCC(CSCCCCCCCCCC)SCCCCCCCCCC)SCCCCCCCCCC (centres unmarked) [I-6] | poor gene silencing | low pKa values | in vitro gene silencing (firefly luciferase, Luc/Ren) ([3]; listed as 6): low gene silencing
CCCCCCCCCCSCC(COC(=O)CCN(CCC(=O)OCC(CSCCCCCCCCCC)SCCCCCCCCCC)CCc1ccccn1)SCCCCCCCCCC (centres unmarked) [I-13] | poor gene silencing | low LNP pKa values | 
CCCCCCCCCCSCC(COC(=O)CCN(CCC(=O)OCC(CSCCCCCCCCCC)SCCCCCCCCCC)CCC1CCCC1)SCCCCCCCCCC (centres unmarked) [I-18] | poor gene silencing; also recorded: unable to silence the target gene |  | particle size / nanoparticle formation [7]: able to form nanoparticles
CCCCCCCCCCSCC(COC(=O)CCN(CCCn1ccnc1)CCC(=O)OCC(CSCCCCCCCCCC)SCCCCCCCCCC)SCCCCCCCCCC (centres unmarked) [I-20] | poor gene silencing | low LNP pKa values | 
CCCCCCCCCCSCC(COC(=O)CCN(CCCN1CCCN(C)CC1)CCC(=O)OCC(CSCCCCCCCCCC)SCCCCCCCCCC)SCCCCCCCCCC (centres unmarked) [I-21] | poor gene silencing | low pKa values | in vitro gene silencing (firefly luciferase, Luc/Ren) ([3]; listed as 21): low gene silencing
CCCCCCCCCCSCC(COC(=O)CCN(CCC(=O)OCC(CSCCCCCCCCCC)SCCCCCCCCCC)CCN1CCS(=O)(=O)CC1)SCCCCCCCCCC (centres unmarked) [I-28] | limited gene silencing performance | low LNP pKa values | cellular uptake [4]: relatively high uptake; intracellular FRET signal (uptake of intact LNPs) [5]: did not give an intracellular FRET signal
CCCCCCCCCCSCC(COC(=O)CCN(CCC(=O)OCC(CSCCCCCCCCCC)SCCCCCCCCCC)C1CCN(Cc2ccccc2)CC1)SCCCCCCCCCC (centres unmarked) [I-29] | poor gene silencing | low LNP pKa values | 
CCCCCCCCCCSCC(COC(=O)CCN(CCC(=O)OCC(CSCCCCCCCCCC)SCCCCCCCCCC)C1CCN(Cc2ccccc2)C1)SCCCCCCCCCC (centres unmarked) [I-30] | poor gene silencing | low LNP pKa values | 

Source: patent publication US9895443B2, “Multi-tailed lipids and uses thereof” (Massachusetts Institute of Technology, priority 2013, dated 2018)
